Settings: 5 microgram per mL
Description: Liver microsomal stability assays were conducted at 1 mg per mL liver microsome protein with an NADPH-generating system in 2% NaHCO3 (2.2 mM NADPH, 25.6 mM glucose 6-phosphate, 6 units per mL glucose 6-phosphate dehydrogenase and 3.3 mM MgCl2). Test compounds were prepared as solutions in 20% acetonitrile-water and added to the assay mixture (final assay concentration 5 microgram per mL) and incubated at 37° C. Final concentration of acetonitrile in the assay were <1%. Aliquots (50 μL) were taken out at times 0, 15, 30, 45, and 60 minutes, and diluted with ice cold acetonitrile (200 μL) to stop the reactions. Samples were centrifuged at 12000 RPM for 10 minutes to precipitate proteins. Supernatants were transferred to microcentrifuge tubes and stored for LC/MS/MS analysis of the degradation half-life of the test compounds.

SMILES | increase in the degradation half-life as compared to the non-isotopically enriched drug (losartan)
[2H]C([2H])(O)c1c(Cl)nc(C([2H])([2H])CCC)n1Cc1ccc(-c2ccccc2-c2nn[nH]n2)cc1 [Example 6, d4-{2-Butyl-5-chloro-3-[2′-(2H-tetrazol-5-yl)-biphenyl-4-ylmethyl]-3H-imidazol-4-yl}-methanol] | 30-180%
[2H]C(c1nc(Cl)c(CO)n1Cc1ccc(-c2ccccc2-c2nn[nH]n2)cc1)C([2H])([2H])C([2H])([2H])C([2H])([2H])[2H] (stereo not shown) [Example 2, d8-{2-Butyl-5-chloro-3-[2′-(2H-tetrazol-5-yl)-biphenyl-4-ylmethyl]-3H-imidazol-4-yl}-methanol] | 30-180%
[2H]C([2H])(O)c1c(Cl)nc(CCCC)n1Cc1ccc(-c2ccccc2-c2nn[nH]n2)cc1 [Example 1, d2-{2-Butyl-5-chloro-3-[2′-(2H-tetrazol-5-yl)-biphenyl-4-ylmethyl]-3H-imidazol-4-yl}-methanol] | 30-180%
[2H]C(c1nc(Cl)c(C([2H])([2H])O)n1Cc1ccc(-c2ccccc2-c2nn[nH]n2)cc1)C([2H])([2H])C([2H])([2H])C([2H])([2H])[2H] (stereo not shown) [Example 4, d10-{2-Butyl-5-chloro-3-[2′-(2H-tetrazol-5-yl)-biphenyl-4-ylmethyl]-3H-imidazol-4-yl}-methanol] | 30-180%
[2H]C(O)c1c(Cl)nc(C([2H])C([2H])([2H])C([2H])([2H])C([2H])([2H])[2H])n1Cc1ccc(-c2ccccc2-c2nn[nH]n2)cc1 (stereo not shown) [Example 3, d9-{2-Butyl-5-chloro-3-[2′-(2H-tetrazol-5-yl)-biphenyl-4-ylmethyl]-3H-imidazol-4-yl}-methanol] | 30-180%
[2H]C(O)c1c(Cl)nc(C([2H])([2H])CCC)n1Cc1ccc(-c2ccccc2-c2nn[nH]n2)cc1 (stereo not shown) [Example 5, d3-{2-Butyl-5-chloro-3-[2′-(2H-tetrazol-5-yl)-biphenyl-4-ylmethyl]-3H-imidazol-4-yl}-methanol] | 30-180%

Settings: cited from earlier work

SMILES | lowering of the rate of new-onset Diabetes Mellitus relative to the β-blocker atenolol [%]
CCCCc1nc(Cl)c(CO)n1Cc1ccc(-c2ccccc2-c2nn[nH]n2)cc1 [losartan, Losartan] | 25
